Here are results for 24 compounds from PubChem BioAssay (NCI).

Some test systems named below: M19-MEL melanoma; MOLT-4 leukemia; U251 CNS; HL-60(TB) leukemia; HCT-15 colon; A498 renal; SF-539 CNS; SF-295 CNS; RPMI-8226 leukemia; HS 578T breast.
What all share (test): DTP human tumour cell line panel, 48 h

Molecules are shown by their SMILES. Several values for one entry are separate records, joined by “and”; a condition that tells them apart may be missing. Equal values may be shown once.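 All cell lines were grown in 96-well plates and treated with compound for 48 hours. At the GI50, growth is halved. TGI is the concentration that stops growth completely.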 Some results are limits rather than exact numbers.

`CCCCn1c(-c2ccccc2)cs/c1=N\N=C1C=C(C(C)(C)C)C(=O)C(C(C)(C)C)=C1`: the TGI with M19-MEL melanoma, in the assay on MOLT-4 leukemia, in the assay with U251 CNS, with HL-60(TB) leukemia, with HCT-15 colon and with A498 renal was above 100 µM throughout. The TGI in the assay with SF-539 CNS and with SF-295 CNS was above 100 µM each time.
Turning to `CC(=O)Nc1ccc(-c2nnc(SCC(=O)Nc3cccc(C)c3)o2)cc1`, the TGI with M19-MEL melanoma is 24.9 µM; in the assay on MOLT-4 leukemia, above 100 µM; with U251 CNS it was 26.3 µM; in the assay with HL-60(TB) leukemia it was above 100 µM; in the assay with RPMI-8226 leukemia, 67 µM; in the assay with HCT-15 colon it was 21.6 µM. Besides, the TGI with SF-539 CNS amounted to 27.8 µM; in the assay on SF-295 CNS, 22.9 µM.
Take `O=C(NN1C(=O)C(Cl)C1c1cccc(O)c1)c1ccccc1O` (configuration not stated): the TGI in the assay with M19-MEL melanoma, with MOLT-4 leukemia, in the assay on U251 CNS, with HL-60(TB) leukemia, in the assay with HCT-15 colon and in the assay with A498 renal was above 100 µM each time. Moreover, the TGI in the assay on SF-539 CNS and with SF-295 CNS was above 100 µM throughout.
Turning to `CC1(CO)C(O)CCC2(C)C1CCC1CC3CC12CCC3(O)CO` (configuration not stated), the TGI in the assay on M19-MEL melanoma, in the assay with MOLT-4 leukemia, in the assay on U251 CNS, in the assay with HL-60(TB) leukemia, in the assay on RPMI-8226 leukemia and in the assay with HCT-15 colon was above 100 µM throughout. The TGI in the assay with A498 renal is 99 µM; in the assay on SF-539 CNS, above 44.5 µM; in the assay on SF-295 CNS, above 100 µM.
Regarding `CCC(=O)OC1CCn2c1nc1c2C(=O)C(C)=C(NC(C)=O)C1=O` (configuration not stated), the TGI in the assay on M19-MEL melanoma is 3.31 µM; in the assay with U251 CNS it was 3.84 µM; in the assay with HL-60(TB) leukemia it was 3.89 µM; in the assay with RPMI-8226 leukemia, 5.66 µM; with A498 renal, 32.5 µM; in the assay on SF-539 CNS, 3.21 µM. Besides, in the assay on SF-295 CNS, the TGI was found to be 4.53 µM.
As for `CCOC(=O)/C=C/n1c2ccccc2c(=O)c2cc(OC)ccc21`, the TGI in the assay with M19-MEL melanoma, in the assay with MOLT-4 leukemia, in the assay with U251 CNS, with HL-60(TB) leukemia, in the assay on HCT-15 colon and with A498 renal was above 100 µM in each case. Besides, the concentration for total growth inhibition (TGI) with SF-539 CNS and in the assay with SF-295 CNS was above 100 µM in each case.
Take `O=c1oc2cc(O)ccc2c2[nH]c3cc(O)ccc3c12`: the TGI is 98.7 µM in the assay with M19-MEL melanoma; above 100 µM in the assay with MOLT-4 leukemia; above 100 µM with U251 CNS; above 100 µM in the assay on HL-60(TB) leukemia; above 100 µM in the assay with RPMI-8226 leukemia; 81.8 µM in the assay on HCT-15 colon. For the same compound, the TGI with A498 renal was above 100 µM; with SF-539 CNS, 49.9 µM; with SF-295 CNS it was above 100 µM.
With `N#C/C(=C\c1ccc(O)c(O)c1)c1c(C#N)c(N)nn1-c1ccccc1`, the TGI in the assay with M19-MEL melanoma was found to be 94.6 µM; in the assay with U251 CNS, 20.6 µM; in the assay with HL-60(TB) leukemia, 32.7 µM; with HCT-15 colon it was 36.8 µM; in the assay on A498 renal it was 9.63 µM; in the assay on SF-539 CNS, 18.9 µM. This compound also came in with a TGI in the assay on SF-295 CNS of 47.7 µM.
With `CCOC(=O)NN(C(=O)OCC)c1ccc(N=Nc2ccc(OC)cc2)n1C`, the TGI was above 100 µM in the assay on MOLT-4 leukemia; above 100 µM with U251 CNS; 50.5 µM in the assay on HL-60(TB) leukemia; above 100 µM in the assay on HS 578T breast; above 100 µM with RPMI-8226 leukemia; 39.1 µM with HCT-15 colon. Further, the values for the TGI with A498 renal, in the assay with SF-539 CNS and with SF-295 CNS were 56.1 µM, 40.5 µM and above 100 µM, respectively.
For the compound `Cc1ccc(C2(O)c3ccccc3C(=O)N(C)C2(O)c2ccc(C)cc2)cc1` (configuration not stated), the concentration for total growth inhibition (TGI) in the assay on MOLT-4 leukemia is 35.1 µM; in the assay on U251 CNS it was 40.1 µM; with HL-60(TB) leukemia it was 40.3 µM; in the assay with HS 578T breast it was 46.9 µM; with RPMI-8226 leukemia it was above 100 µM; in the assay with HCT-15 colon, above 100 µM. Further, the TGI in the assay on A498 renal, with SF-539 CNS and in the assay on SF-295 CNS was above 100 µM each time.
With `COc1ccc2c(c1)CC[C@@H]1[C@@H]2CC[C@]2(C)/C(=N/OCCN3CCCC3)CC[C@@H]12`, the TGI in the assay with MOLT-4 leukemia was determined as 4.85 µM; with U251 CNS it was 10.4 µM; in the assay with HL-60(TB) leukemia, 5.53 µM; in the assay with HS 578T breast it was 7.29 µM; with RPMI-8226 leukemia, 3.65 µM; in the assay on HCT-15 colon, 2.65 µM. Besides, the values for the concentration for total growth inhibition (TGI) in the assay with A498 renal, in the assay with SF-539 CNS and in the assay with SF-295 CNS were 9.9 µM, 3.92 µM and 4.63 µM, respectively.
Turning to `Cc1cc(N(CCC#N)S(=O)(=O)c2ccccc2)ccc1C=Nc1cccc(C(=O)O)c1`, the TGI in the assay on M19-MEL melanoma, with MOLT-4 leukemia, in the assay with U251 CNS, with HL-60(TB) leukemia, with RPMI-8226 leukemia and in the assay on HCT-15 colon was above 100 µM in each case. For the same compound, the TGI with SF-539 CNS and in the assay on SF-295 CNS was above 100 µM throughout.
As for `C/C=C/CC(C(=O)OCC)(N(C)C(=O)OC(C)(C)C)S(=O)(=O)c1ccc(C)cc1` (configuration not stated), the TGI with MOLT-4 leukemia, in the assay on U251 CNS, with HL-60(TB) leukemia, in the assay with HS 578T breast, in the assay on RPMI-8226 leukemia and in the assay with HCT-15 colon was above 100 µM each time. Besides, the concentration for total growth inhibition (TGI) in the assay on A498 renal, with SF-539 CNS and in the assay with SF-295 CNS was above 100 µM throughout.
Consider `Cc1cccc2c(N)c3cccc(C(=O)NCC[N+](C)(C)Cc4ccc([N+](=O)[O-])n4C)c3nc12`, for which the TGI is 25.4 µM in the assay on MOLT-4 leukemia; 63.4 µM in the assay with U251 CNS; 29.2 µM in the assay with HL-60(TB) leukemia; 41 µM in the assay with HS 578T breast; 52.5 µM in the assay with RPMI-8226 leukemia; above 78 µM in the assay with HCT-15 colon. Also, the TGI is above 63.1 µM with A498 renal, 52.5 µM in the assay with SF-539 CNS and above 89.3 µM with SF-295 CNS.
Consider `CC(=O)c1ccc(N2C(=O)C3c4[nH]c5ccccc5c4C4CCC(C(C)(C)C)CC4C3C2=O)cc1` (configuration not stated), for which the TGI with M19-MEL melanoma is 42.1 µM; in the assay with MOLT-4 leukemia, above 100 µM; in the assay on U251 CNS, 39.8 µM; in the assay with HL-60(TB) leukemia it was 76.9 µM; with RPMI-8226 leukemia it was 54 µM; in the assay with HCT-15 colon it was 92.8 µM. The TGI with A498 renal was found to be 71.3 µM; in the assay on SF-539 CNS it was 46.1 µM; with SF-295 CNS, 88.9 µM.
As for `[N-]=[N+]=CC(=O)C1(C(=O)C=[N+]=[N-])CC1`, the TGI in the assay with M19-MEL melanoma, with MOLT-4 leukemia, with U251 CNS, in the assay on HL-60(TB) leukemia, in the assay on HCT-15 colon and in the assay with A498 renal was above 100 µM throughout. The TGI with SF-539 CNS and with SF-295 CNS was above 100 µM in each case.
As for `O=C(O)c1cc(N=Nc2ccc([N+](=O)[O-])cc2)ccc1O`, the total growth inhibition concentration (TGI) in the assay on MOLT-4 leukemia was 77 µM; in the assay on U251 CNS, 68.4 µM; with HL-60(TB) leukemia, 73.7 µM; with HS 578T breast, above 100 µM; in the assay with RPMI-8226 leukemia, 53.3 µM; in the assay on HCT-15 colon it was above 100 µM. Moreover, the TGI in the assay with A498 renal is 46.6 µM; in the assay on SF-539 CNS, above 100 µM; with SF-295 CNS, 83.7 µM.
Regarding `CCN(CC)CC1CCCCN1CC(=O)N1c2cc(Cl)ccc2NC(=O)CC1C` (configuration not stated), the TGI in the assay with M19-MEL melanoma, in the assay on MOLT-4 leukemia, in the assay with U251 CNS, with HL-60(TB) leukemia, in the assay on RPMI-8226 leukemia and in the assay with A498 renal was above 100 µM in each case. Also, in the assay with SF-539 CNS, the total growth inhibition concentration (TGI) was above 100 µM.
Turning to `C=CCn1c(-c2cc(C(C)(C)C)c(O)c(C(C)(C)C)c2)cs/c1=N\C(P(=O)(O)O)P(=O)(O)O`, the TGI with MOLT-4 leukemia, with U251 CNS, in the assay on HL-60(TB) leukemia, with HS 578T breast, in the assay with RPMI-8226 leukemia and in the assay with HCT-15 colon was above 100 µM in each case. Besides, the total growth inhibition concentration (TGI) with A498 renal, with SF-539 CNS and in the assay on SF-295 CNS was above 100 µM throughout.
On to `O=C(N/N=C(/COc1ccccc1)N=Cc1ccncc1)c1ccncc1`, for which the TGI with MOLT-4 leukemia, in the assay with U251 CNS, in the assay on HL-60(TB) leukemia, in the assay with HS 578T breast, with RPMI-8226 leukemia and in the assay with HCT-15 colon was above 100 µM throughout. Besides, the TGI with A498 renal, in the assay with SF-539 CNS and in the assay with SF-295 CNS was above 100 µM throughout.
For the compound `COC1(OC)CC2C(=O)N(Cc3ccccc3)C1C(S(=O)(=O)c1ccccc1)C2C(C)S(=O)(=O)c1ccccc1` (configuration not stated), the TGI in the assay with M19-MEL melanoma, in the assay with MOLT-4 leukemia, with U251 CNS, with HL-60(TB) leukemia, in the assay with RPMI-8226 leukemia and in the assay on HCT-15 colon was above 100 µM each time. Also, the total growth inhibition concentration (TGI) in the assay with SF-539 CNS and with SF-295 CNS was above 100 µM throughout.
Consider `C1=N[C@]23C(=N[C@H](N=C2NCc2ccco2)[C@]24N=CNC2=N[C@H]3N=C4NCc2ccco2)N1`, for which the GI50 with MOLT-4 leukemia is above 100 µM; with U251 CNS, above 100 µM; in the assay with HL-60(TB) leukemia it was above 100 µM; in the assay with HS 578T breast, 39.1 µM; in the assay with RPMI-8226 leukemia, above 100 µM; in the assay on HCT-15 colon it was above 100 µM. Besides, the GI50 in the assay on A498 renal is 5.8 µM; in the assay on SF-539 CNS, above 100 µM; in the assay with SF-295 CNS, above 100 µM. In addition, the TGI with MOLT-4 leukemia, in the assay with U251 CNS, with HL-60(TB) leukemia, with HS 578T breast, with RPMI-8226 leukemia and with HCT-15 colon was above 100 µM each time. The TGI with A498 renal, with SF-539 CNS and in the assay on SF-295 CNS was above 100 µM in each case.
Consider `Cc1ccc(S(=O)(=O)NC(=O)C2S(=O)(=O)OCCOS2(=O)=O)cc1`, for which the TGI in the assay on M19-MEL melanoma, in the assay with HL-60(TB) leukemia, with RPMI-8226 leukemia, with SF-539 CNS and with SF-295 CNS was above 100 µM each time.
As to `CCN(CC)CCNc1c2ccccc2nc2cccc([N+](=O)[O-])c12`, the 50% growth inhibitory concentration (GI50) in the assay on M19-MEL melanoma was 0.0156 µM; in the assay on HL-60(TB) leukemia, 0.0104 µM; with SF-539 CNS, 0.107 µM; in the assay with SF-295 CNS, 0.015 µM. Moreover, the TGI in the assay on M19-MEL melanoma was 0.0409 µM; in the assay with MOLT-4 leukemia, 0.124 µM; in the assay on U251 CNS, 0.0775 µM; in the assay on HL-60(TB) leukemia, 0.175 µM; in the assay on HS 578T breast, 0.039 µM; with HCT-15 colon it was 0.0205 µM and 0.0398 µM. The TGI in the assay with A498 renal is 0.014 µM; in the assay with SF-539 CNS it was 0.0472 µM and 0.251 µM; in the assay on SF-295 CNS, 0.0342 µM and 0.0643 µM.

By TGI is commonly meant the concentration at which net growth stops. Lower therefore signals more potent growth arrest. As a reminder, the GI50 is the concentration giving 50% growth inhibition.
